According to US8232272B2, “Benzimidazoledihydrothiadiazinone derivatives as fructose-1,6-bisphosphatase inhibitors, and pharmaceutical compositions comprising same” (Merck Patent Gesellschaft mit beschränkter Haftung, priority 2007, dated 2012):
Where a name gives a salt, the structure may show the parent alone.

Test system: not given
Test: not given
Settings: not given

First: COc1cccc(-c2nc3cc(C4=NNC(=O)SC4)ccc3n2CC(C)C)c1 [Example 11, 5-[1-isobutyl-2-(3-methoxyphenyl)-1H-benzimidazol-5-yl]-3,6-dihydro-2H-1,3,4-thiadiazin-2-one]
Second: CCn1c(-c2cccc(OC)c2)nc2cc(C3=NNC(=O)SC3)ccc21 [Example 11-6, 5-[1-ethyl-2-(3-methoxyphenyl)-1H-benzimidazol-5-yl]-3,6-dihydro-2H-1,3,4-thiadiazin-2-one]
The melting point of the first is lower: 207 to 209 °C for the first, 221 to 223 °C for the second.

First: CCCC1SC(=O)NN=C1c1ccc2c(c1)nc(-c1cccc(C(F)(F)F)c1)n2C (stereo not shown) [Example 11-5, 5-{1-methyl-2-[3-(trifluoromethyl)phenyl]-1H-benzimidazol-5-yl}-6-propyl-3,6-dihydro-2H-1,3,4-thiadiazin-2-one]
Second: COc1cccc(-c2nc3cc(C4=NNC(=O)SC4C)ccc3n2CC(C)C)c1 (stereo not shown)
The melting point of the first is higher: 190 to 192 °C for the first, 100 to 105 °C for the second.

For `CCn1c(-c2cccc(F)c2)nc2cc(C3=NNC(=O)SC3)ccc21` [Example 11-4, 5-[1-ethyl-2-(3-fluorophenyl)-1H-benzimidazol-5-yl]-3,6-dihydro-2H-1,3,4-thiadiazin-2-one], the melting point was 214 to 216 °C.

Molecular target: T1, recombinant human liver fructose-1,6-bisphosphatase (Homo sapiens, UniProt P09467)
T1 sequence (P09467 1-338): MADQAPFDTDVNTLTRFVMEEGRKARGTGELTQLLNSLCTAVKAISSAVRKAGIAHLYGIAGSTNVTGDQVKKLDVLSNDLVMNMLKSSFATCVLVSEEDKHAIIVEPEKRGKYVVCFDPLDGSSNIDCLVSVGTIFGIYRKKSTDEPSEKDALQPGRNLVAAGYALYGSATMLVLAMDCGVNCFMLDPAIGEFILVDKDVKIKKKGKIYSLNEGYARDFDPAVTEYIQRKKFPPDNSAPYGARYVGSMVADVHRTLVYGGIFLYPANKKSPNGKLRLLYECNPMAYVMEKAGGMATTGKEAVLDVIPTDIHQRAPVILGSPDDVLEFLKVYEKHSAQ
Test: Inhibition of recombinant human liver fructose-1,6-bisphosphatase (spectrophotometric coupled enzyme assay)
Type: biochemical
Settings: 0.167 mM fructose-1,6-bisphosphate, pH 7.5, room temperature, 30 minutes at 340 nm, read-out: Inhibition of human F-1,6-BPase IC50
From the text: […]

Point of comparison: `CC1SC(=O)NN=C1c1ccc2[nH]c(-c3ccc(-n4ccnc4)cc3)nc2c1` (stereo not shown) [Example 26-4, 5-{2-[4-(1H-imidazol-1-yl)phenyl]-1H-benzimidazol-5-yl}-6-methyl-3,6-dihydro-2H-1,3,4-thiadiazin-2-one dihydrochloride], IC50 3.6 µM. Against it:
- CC1SC(=O)N(C(C)C)N=C1c1ccc2c(c1)nc(-c1cccc(F)c1)n2C (stereo not shown) [Example 12-3, 5-[2-(3-fluorophenyl)-1-methyl-1H-benzimidazol-5-yl]-3-isopropyl-6-methyl-3,6-dihydro-2H-1,3,4-thiadiazin-2-one] — 1.9-fold higher, 7 µM
- COc1cc(-c2nc3cc(C4=NNC(=O)SC4C)ccc3[nH]2)ccc1[S+](C)[O-] (stereo not shown) [Example 26-3, 5-{2-[3-methoxy-4-(methylsulfinyl)phenyl]-1H-benzimidazol-5-yl}-6-methyl-3,6-dihydro-2H-1,3,4-thiadiazin-2-one hydrochloride] — 1.8-fold higher, 6.4 µM
- COc1cccc(-c2nc3cc(C4=NN(C)C(=O)SC4)ccc3n2C2CCCCCC2)c1 [Example 12-7, 5-[1-cycloheptyl-2-(3-methoxyphenyl)-1H-benzimidazol-5-yl]-3-methyl-3,6-dihydro-2H-1,3,4-thiadiazin-2-one] — 10-fold higher, 36 µM
- CCCN1N=C(c2ccc3c(c2)nc(-c2cccc(F)c2)n3C)C(C)SC1=O (stereo not shown) [Example 12-6, 5-[2-(3-fluorophenyl)-1-methyl-1H-benzimidazol-5-yl]-6-methyl-3-propyl-3,6-dihydro-2H-1,3,4-thiadiazin-2-one] — 2.4-fold higher, 8.5 µM

Test system: rat hepatocyte primary cultures (hepatic glucose production)
Test: Hepatic production of glucose in rat hepatocyte primary cultures
Type: cell-based, Wistar rat
Settings: rat hepatocytes incubated 3 hours with dihydroxyacetone (DHA) as substrate, control = DHA without compounds
From the text: Effects of the Various Compounds Described Previously on the Hepatic Production of Glucose in Rat Hepatocyte Primary Cultures
The hepatocytes are isolated from Wistar rat liver via the collagenase perfusion technique described by Seglen (Methods Cell Biol. 1975; 13, 29-83). The cell viability is confirmed by the exclusion test with trypan blue. The isolated hepatocytes are suspended in a William's medium supplemented with foetal calf serum (10%) in 6-well plates. After a 4-hour attachment period, the medium is aspirated to remove the cell debris and replaced with a serum-free and glucose-free MEM medium. The hepatocytes are then cultured for 16 to 18 hours (37° C.; 5% CO2). At the end of culturing and after having aspirated the medium, the glucose production is measured by incubating the hepatocytes for 3 hours in a Krebs buffer supplemented with dihydroxyacetone (DHA) as neoglucogenesis substrate, in the presence or absence of the various compounds described previously. The amount of glucose in the medium is measured in each culture well via a test with glucose oxidase (GOD). The cell protein content is evaluated via the Lowry method. The results are expressed in nanomoles of glucose produced per mg of cell protein. The activity of the test compounds is expressed as a percentage of the control (production of glucose in the presence of DHA but without compounds).
Inhibition of Hepatic Glucose Production

With `COc1cc(-c2nc3cc(C4=NNC(=O)SC4C)ccc3[nH]2)ccc1[S+](C)[O-]` (stereo not shown) [Example 26-3, 5-{2-[3-methoxy-4-(methylsulfinyl)phenyl]-1H-benzimidazol-5-yl}-6-methyl-3,6-dihydro-2H-1,3,4-thiadiazin-2-one hydrochloride] the “Hepatic glucose production. % of the control at 30 μM” value (shortened to “Hepatic glucose production. %”) was 34 % of the control.
In the case of `COc1cccc(-c2nc3cc(C4=NNC(=O)SC4C)ccc3[nH]2)c1` (stereo not shown) [Example 26, 5-[2-(3-methoxyphenyl)-1H-benzimidazol-5-yl]-6-methyl-3,6-dihydro-2H-1,3,4-thiadiazin-2-one], the “Hepatic glucose production. %” value is reported as 38 % of the control.
For `CC1SC(=O)NN=C1c1ccc2[nH]c(-c3ccc(-n4ccnc4)cc3)nc2c1` (stereo not shown) [Example 26-4, 5-{2-[4-(1H-imidazol-1-yl)phenyl]-1H-benzimidazol-5-yl}-6-methyl-3,6-dihydro-2H-1,3,4-thiadiazin-2-one dihydrochloride], the “Hepatic glucose production. %” value was 28 % of the control.
